In brackets after ≈: the same amount, converted by molar mass. Several values for one entry are separate records, joined by “and”; a condition that tells them apart may be missing. Equal entries are not always repeated. Where two headings read alike, the source gives them in different places.
Columns and labels:
rumen in vitro model [1] = assay: rumen in vitro model (growth promotant activity); set-up: species or system steer
[2] = tested on: Fusobacterium nucleatum ATCC 25586; format: cell-based; details: Table D, Anaerobes
B. loeochii SK & F 3087 = format: cell-based; details: Table D, Anaerobes
Providencia SK & F 276 = format: cell-based; details: Table A
[3] = tested on: Clostridium perfringens MCP-1; details: Table D, Anaerobes
[4] = tested on: Pseudomonas aeruginosa HH63; format: cell-based; details: Table A
B. fragilis SK & F 3060 = format: cell-based, Bacteroides fragilis; details: Table D, Anaerobes
[5] = tested on: E. coli 12140 (SK & F 809); format: cell-based
B. fragilis H145 = format: cell-based, Bacteroides fragilis; details: Table D, Anaerobes
[6] = tested on: Salmonella gallinarum BC595
[7] = tested on: B. thetaiotamicron SK & F 3089; format: cell-based; details: Table D, Anaerobes
[8] = tested on: Listeria monocytogenes SK & F 2255; format: cell-based; details: Table A
Swine in vitro model = assay: swine in vitro model (growth promotant activity)
[9] = tested on: Serratia marcesens ATCC 13880; format: cell-based; details: Table A
Strep. faecilis HH34358 = format: cell-based; details: Table A
[10] = tested on: Enterobacter cloacae HH31254; format: cell-based; details: Table A
C. perfringens MCP-2 = details: Table D, Anaerobes
[11] = tested on: Kleb. pneumoniae 4200 (SK & F 798); format: cell-based; details: Table A
[12] = tested on: Proteus mirabilis SK & F 444; format: cell-based; details: Table A
[13] = tested on: Staph. aureus SK & F 2613; format: cell-based; details: Table B, Methicillin Sensitive
[14] = tested on: Bacteroides fragilis ATCC 25285; format: cell-based; details: Table D, Anaerobes
solubility = format: physicochemical
rumen in vitro model [15] = assay: rumen in vitro model (growth promotant activity); set-up: species or system steer; remark: listed apart in the source
Description: The protocol for the rumen in vitro model is analogous to the protocol for the swine in vitro model with the following modifications:
(1) A 400 kg steer is surgically prepared with a rumen cannula.
(2) The animal is fed one time a day with the following ration:
(3) Manipulation of VFA production is described as the production ratio of propionate as a percentage of total VFA produced.
(4) Sampling of the material, via the cannula, is at 120 minutes post feeding.

[16] = tested on: Proteus morgani SK & F 179; format: cell-based; details: Table A
[17] = tested on: Staph. epidermidis SK & F 2265; format: cell-based; details: Table E
[18] = tested on: Strep. faecalis SK & F 657; format: cell-based; details: Table E
[19] = tested on: Staph. epidermidis SK & F 2683; format: cell-based; details: Table E
[20] = tested on: Staph. aureus SK & F 674-P6 Mutant; assay: microbe, parasite or virus in culture; format: cell-based; details: Table E
[21] = tested on: Staph. aureus 209P-Mutant; assay: microbe, parasite or virus in culture; format: cell-based; details: Table E
[22] = H2O, methanol, dimethylsulfoxide, dimethylformamide
[23] = ethanol, acetonitrile, acetone, diethylether, aliphatic hydrocarbons

CN[C@H]1C(=O)N[C@H]2C(=O)N[C@H](C(=O)N[C@H]3C(=O)N[C@H]4C(=O)N[C@H](C(=O)N[C@H](C(=O)O)c5cc(O)cc(O[C@H]6O[C@H](CO)[C@@H](O)[C@H](O)[C@@H]6O)c5-c5cc4ccc5O)[C@H](O)c4cc(Cl)c(c(Cl)c4)Oc4cc3cc(c4O[C@@H]3O[C@H](C(=O)O)[C@@H](O)[C@H](O)[C@H]3NC(=O)CCCCCCCCC(C)C)Oc3ccc(cc3Cl)[C@H]2O)c2cc(cc(O)c2Cl)Oc2cc1ccc2O
LYS (lysine) (rumen in vitro model [1]): 110 % Control and 103 % Control
MIC [2]: 32 µg/mL (≈ 17.6 µM)
MIC (B. loeochii SK & F 3087): 4 µg/mL (≈ 2.2 µM)
MIC (Providencia SK & F 276): > 100 µg/mL
MIC [3]: ≤ 0.016 µg/mL
MIC [4]: > 100 µg/mL
MIC (B. fragilis SK & F 3060): 16 µg/mL (≈ 8.8 µM)
MIC ([5]; Table A): > 100 µg/mL
MIC (B. fragilis H145): 8 µg/mL (≈ 4.4 µM)
MIC ([6]; Table A): > 100 µg/mL
MIC [7]: 32 µg/mL (≈ 17.6 µM)
MIC [8]: ~ 0.4 μg/ml
GLU (glucose) (Swine in vitro model): 191 % Control and 188 % Control and 96 % Control
MIC [9]: > 100 µg/mL
MIC (Strep. faecilis HH34358): 0.8 µg/mL (≈ 0.44 µM)
MIC [10]: > 100 µg/mL
MIC (C. perfringens MCP-2): ≤ 0.016 µg/mL
MIC [11]: > 100 µg/mL
MIC [12]: > 100 µg/mL
MIC [13]: 1.6 µg/mL (≈ 0.88 µM)
MIC [14]: 32 µg/mL (≈ 17.6 µM)
solubility (solubility; [22]): soluble
solubility (solubility; [23]): insoluble
Propionate % (rumen in vitro model [15]): 120 % Control
VFA (total of volatile fatty acids) (rumen in vitro model [15]): 111 % Control
MIC [16]: > 100 µg/mL

CCCCCCCCCC(=O)N[C@H]1[C@H](Oc2c3cc4cc2Oc2c(Cl)cc(cc2Cl)[C@@H](O)[C@@H]2NC(=O)[C@H](NC(=O)[C@@H]4NC(=O)[C@H]4NC(=O)[C@H](NC(=O)[C@H](NC)c5ccc(O)c(c5)Oc5cc(O)c(Cl)c4c5)[C@H](O)c4ccc(c(Cl)c4)O3)c3ccc(O)c(c3)-c3c(O[C@H]4O[C@H](CO)[C@@H](O)[C@H](O)[C@@H]4O)cc(O)cc3[C@@H](C(=O)O)NC2=O)O[C@H](C(=O)O)[C@@H](O)[C@@H]1O [AAD 216A]
LYS (lysine) (rumen in vitro model [1]): 114 % Control
MIC [2]: 32 µg/mL (≈ 17.9 µM)
MIC (Providencia SK & F 276): > 100 µg/mL
MIC [17]: 100 µg/mL (≈ 55.9 µM)
MIC [18]: 0.8 µg/mL (≈ 0.447 µM)
MIC [4]: > 100 µg/mL
MIC (B. fragilis SK & F 3060): 32 µg/mL (≈ 17.9 µM)
MIC [19]: 100 µg/mL (≈ 55.9 µM)
MIC ([5]; Table A): > 100 µg/mL
MIC ([5]; Table E): > 100 µg/mL
MIC ([6]; Table A): > 100 µg/mL
MIC ([6]; Table E): > 100 µg/mL
MIC [7]: > 32 µg/mL
GLU (glucose) (Swine in vitro model): 187 % Control and 191 % Control
LYS (lysine) (Swine in vitro model): 63 % Control and 50 % Control and 94 % Control
MIC [20]: ~ 100 μg/ml
MIC [9]: > 100 µg/mL
MIC [10]: > 100 µg/mL
MIC [11]: > 100 µg/mL
MIC [12]: > 100 µg/mL
MIC [14]: 32 µg/mL (≈ 17.9 µM)
solubility (solubility; [22]): soluble
solubility (solubility; [23]): insoluble
VFA (total of volatile fatty acids) (rumen in vitro model [15]): 111 % Control and 94 % Control
MIC [21]: 100 µg/mL (≈ 55.9 µM)
MIC [16]: > 100 µg/mL

From patent US4672036A, “Pure cultures of Kibdelsporangium aridum Shearer gen. nov., sp. nov. ATCC 39323 and mutants thereof” (SmithKline Beckman Corporation, priority 1985, dated 1987)
